According to US20230165884A1, “METHOD AND COMPOSITION FOR TREATING ALZHEIMERS” (Cognitive Synergy Corporation, priority 2021, published 2023):

How the values were obtained:
Aβ1-42 protein = molecular target: T1, Aβ1-42 protein (Homo sapiens, UniProt P05067); test: Percentage of Aβ1-42 protein fibrillization by ThT fluorescence (FIG. 18, 19); format: biochemical; parameters: percentage of Aβ fibrillization compared to the control: unit of the concentration uncertain; settings: for effect on Aβ protein aggregation and/or tau protein accumulation: incubated with Aβ1-42 for 24 hours at 37° C.
T1 construct: aggregated amyloid beta 1-42 (Aβ1-42)
Procedure: FIG. 18 is an analysis showing a percentage of Aβ1-42 protein fibrillization using thioflavin T (ThT) florescence in various samples. The sample on the left is a control of Aβ1-42 protein. […] The third sample from the left is Aβ protein treated with 10 mM Aconitine. And the fourth sample from the left is Aβ1-42 protein treated with 20 mM Aconitine.
FIG. 19 is an analysis showing an amount of Aβ1-42 protein fibrillization using thioflavin T (ThT) fluorescence in various samples. The sample on the left is a control of Aβ1-42 protein. The second sample from the left is Aβ1-42 protein treated with 200 mM of bergenin. The third sample from the left is Aβ1-42 protein treated with 300 mM bergenin.
The various compounds were incubated with Aβ1-42 for 24 hours at 37° C. to determine the effect of compounds on defibrillation. Further, testing was done to determine an effect of the compounds on tau protein.
Referring to FIG. 18, FIG. 18 is a bar graph 1800 showing a percentage of Aβ protein fibrillization in various samples. The sample on the left is a control 1805 of Aβ protein. […] The third sample 1815 from the left is Aβ protein treated with 10 mM aconitine. And the fourth sample 1820 from the left is Aβ protein treated with 20 mM aconitine.
The intensity for the control 1805 is normalized to 100.
The third sample 1815 includes a concentration of 10 mM aconitine. […] The fourth sample 1820 includes a concentration of 20 mM aconitine.
Referring to FIG. 19, FIG. 19 is a bar graph 1900 showing an amount of Aβ protein in various samples. The sample on the left is a control 1905 of Aβ protein. The second sample 1910 from the left is Aβ protein treated with 200 mM bergenin. The third sample 1915 from the left is Aβ protein treated with 300 mM bergenin.
The control 1905 on the left side of the bar graph 1900, which just contains Aβ protein is normalized to 100. The measurement of the percentage of the Aβ protein in the control 1905 that aggregates into Aβ fibrils is compared against solutions containing bergenin.
The second sample 1910 contains 200 mM bergenin. […] The third sample 1915 contained 300 mM bergenin.

[1] = system: neurons with Aβ treatment; test: Cell survival assay of various compositions (FIG. 29); format: cell-based; settings: Aβ control 61.7592%
Procedure: (§1) Orientin, vitexin, and bergenin were detected as possible targets based on identification via Liquid Chromatography—mass Spectrometry (LC-MS) from Synaptecx-227 and verified via mass spectrometric (MS) analysis. Aβ1-42 defibrillation analysis and Aβ1-42 cell survival were performed for various combinations of the above identified targets.
In the control sample with Aβ treatment, the % of surviving neurons is 61.7592% (p value<0.0001 ****).

Aβ = molecular target: T2, Aβ (Homo sapiens, UniProt P05067); test: Fibrillization assay of various compositions (FIG. 28); format: biochemical; settings: control 100% fibrillization
T2 construct: aggregated amyloid beta 1-42 (Aβ1-42)
Procedure: as §1
The sample treated with a 20 micromolar concentration of orientin, 20 micromolar concentration of vitexin, and 50 micromolar concentration of bergenin decreased Aβ fibrillization by 48.9989% (p value<0.0001 ****).

T2 sequence (P05067 672-713): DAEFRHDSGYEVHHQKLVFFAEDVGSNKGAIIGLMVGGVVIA
T1 sequence (P05067 672-713): as above

Compound	effect on Aβ protein aggregation and/or tau protein accumulation (Aβ1-42 protein)	decrease of Aβ fibrillization (Aβ; 20 micromolar) [%]	cell survival ([1]; 20 micromolar) [%]	further results
CCN1C[C@]2(COC)[C@H](O)C[C@H](OC)[C@@]34[C@@H]5C[C@@]6(O)[C@H](OC(=O)c7ccccc7)[C@@H]5[C@@](OC(C)=O)([C@@H]([C@H](OC)[C@H]23)[C@@H]14)[C@@H](O)[C@@H]6OC [aconitine]	reducing a percentage of Aβ protein aggregation as compared to a control and/or reducing a percentage of tau protein accumulation as compared to a control	–	–	percentage of Aβ fibrillization compared to the control (Aβ1-42 protein; 10 (unit uncertain)): 82.0%; percentage of Aβ fibrillization compared to the control (Aβ1-42 protein; 20 (unit uncertain)): 74.8%
O=C(N[C@@H](Cc1ccccc1)C(=O)N[C@H](CO)Cc1ccccc1)c1ccccc1 [aurantiamide]	–	24.8578	–	cell survival ([1]; 10 micromolar): 71.5173%
COc1c(O)cc2c(c1O)[C@@H]1O[C@H](CO)[C@@H](O)[C@H](O)[C@H]1OC2=O [bergenin]	reducing a percentage of Aβ protein aggregation as compared to a control and/or reducing a percentage of tau protein accumulation as compared to a control	–	–	cell survival ([1]; 50 micromolar): 76.2308%; decrease of Aβ fibrillization (Aβ; 50 micromolar): 31.9532%
O=c1cc(-c2ccc(O)c(O)c2)oc2c([C@@H]3O[C@H](CO)[C@@H](O)[C@H](O)[C@H]3O)c(O)cc(O)c12 [orientin]	–	29.2843	77.8195	–
O=c1cc(-c2ccc(O)cc2)oc2c([C@@H]3O[C@H](CO)[C@@H](O)[C@H](O)[C@H]3O)c(O)cc(O)c12 [vitexin]	–	28.8579	73.4208	–
swatinine	reducing a percentage of Aβ protein aggregation as compared to a control and/or reducing a percentage of tau protein accumulation as compared to a control	–	–	–
